Read-outs that look alike come from different tables or passages of the source.
Target: T1, Human BCL-XL protein (N-terminal HiBiT tagged BCL-XL in HT1080 cells) (Homo sapiens, UniProt Q07817)
T1 construct: expressed in transfected cells; host or cells: HT-1080 (ATCC CCL-121), stably transduced with lentivirus pLV-UBC-N-HiBiT-BCL-XL-PGK-puro and selected with puromycin
Assay: HiBiT based degradation assay
Type: cell-based
Conditions: HT1080 cells expressing HiBiT-BCL-XL; for Ymin (6 h) / Ymin (24 h): BCL-XL degradation normalized with DMSO control; for DC50: BCL-XL degradation
Summary of the method: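 HT1080 cells stably transduced by lentivirus with N-terminally HiBiT-tagged human BCL-XL and kept under 1 μg/mL puromycin selection were seeded at three thousand cells per well in 40 μL RPMI 1640 into 384-well plates pre-spotted with compounds across a concentration range. Luminescence was read on a PHERAstar FSX, normalized to DMSO, and fitted with a four-parameter logistic model.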

T1 sequence (Q07817 whole entry): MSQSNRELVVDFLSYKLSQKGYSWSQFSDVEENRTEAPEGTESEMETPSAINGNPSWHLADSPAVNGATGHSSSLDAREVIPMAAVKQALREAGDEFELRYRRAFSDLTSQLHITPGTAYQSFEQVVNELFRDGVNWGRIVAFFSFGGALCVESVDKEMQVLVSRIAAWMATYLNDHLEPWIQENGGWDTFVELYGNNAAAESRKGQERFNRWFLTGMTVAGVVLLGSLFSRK

SMILES	Ymin (6 h)	Ymin (24 h)	DC50 (6 h, read-out: EC50 (6 h)) [nM]	DC50 (24 h, read-out: EC50 (24 h)) [nM]
Cc1c(OCCO[C@@H]2C[C@H]3CC[C@@H](C2)N3CC(=O)Nc2cccc3c(C4CCC(=O)NC4=O)nn(C)c23)cccc1-c1ccc(N2CCc3cccc(C(=O)Nc4nc5ccccc5s4)c3C2)nc1C(=O)O (stereo partly drawn) [Compound 224a, 6-(8-(benzo[d]thiazol-2-ylcarbamoyl)-3,4-dihydroisoquinolin-2(1H)-yl)-3-(3-(2-(((1R,3s,5S)-8-(2-((3-(2,6-dioxopiperidin-3-yl)-1-methyl-1H-indazol-7-yl)amino)-2-oxoethyl)-8-azabicyclo[3.2.1]octan-3-yl)oxy)ethoxy)-2-methylphenyl)picolinic acid]	C (Ymin ≥ 70%)	B (50% ≤ Ymin < 70%)	1000 to 10000	< 100
Cc1c(OCCCCCCN2CCN(c3ccc4c(C5CCC(=O)NC5=O)nn(C)c4c3)CC2)cccc1-c1ccc(N2CCc3cccc(C(=O)Nc4nc5ccccc5s4)c3C2)nc1C(=O)O (stereo not shown) [Compound 222, 6-(8-(benzo[d]thiazol-2-ylcarbamoyl)-3,4-dihydroisoquinolin-2(1H)-yl)-3-(3-((6-(4-(3-(2,6-dioxopiperidin-3-yl)-1-methyl-1H-indazol-6-yl)piperazin-1-yl)hexyl)oxy)-2-methylphenyl)picolinic acid]	B (50% ≤ Ymin < 70%)	A (Ymin < 50%)	< 100	< 100
Cc1c(O[C@H]2CCC3(CCN(CC(=O)Nc4ccc5c(C6CCC(=O)NC6=O)nn(C)c5c4)CC3)C2)cccc1-c1ccc(N2CCc3cccc(C(=O)Nc4nc5ccccc5s4)c3C2)nc1C(=O)O (single isomer, unassigned) [Compound 268a]		A (Ymin < 50%)		< 100
Cc1c(-c2ccc(N3CCc4cccc(C(=O)Nc5nc6ccccc6s5)c4C3)nc2C(=O)NCCCCCCCCCC(=O)Nc2ccc3c(C4CCC(=O)NC4=O)nn(C)c3c2)cnn1CC12CC3CC(CC(C3)C1)C2 (stereo not shown) [Compound 112, 2-[5-[1-(1-adamantylmethyl)-5-methyl-pyrazol-4-yl]-6-[[10-[[3-(2,6-dioxo-3-piperidyl)-1-methyl-indazol-6-yl]amino]-10-oxo-decyl]carbamoyl]-2-pyridyl]-N-(1,3-benzothiazol-2-yl)-3,4-dihydro-1H-isoquinoline-8-carboxamide]	B (50% ≤ Ymin < 70%)		< 100	
Cc1c(-c2ccc(N3CCc4cccc(C(=O)Nc5nc6ccccc6s5)c4C3)nc2C(=O)NCCCCCCCCCC(=O)Nc2cccc3c(C4CCC(=O)NC4=O)nn(C)c23)cnn1CC12CC3CC(CC(C3)C1)C2 [Compound 109, 2-(5-(1-((3R, 5R, 7R)-adamantan-1-ylmethyl)-5-methyl-1H-pyrazol-4-yl)-6-((10-((3-(2,6-dioxopiperidin-3-yl)-1-methyl-1H-indazol-7-yl)amino)-10-oxodecyl)carbamoyl)pyridin-2-yl)-N-(benzo[d]thiazol-2-yl)-1,2,3,4-tetrahydroisoquinoline-8-carboxamide]	B (50% ≤ Ymin < 70%)		< 100	
Cc1c(O[C@H]2CC[C@H](CCCN3CC[C@@H](c4ccc5c(C6CCC(=O)NC6=O)nn(C)c5c4)C3)CC2)cccc1-c1ccc(N2CCc3cccc(C(=O)Nc4nc5ccccc5s4)c3C2)nc1C(=O)O (single isomer, unassigned) [Compound 331b]		A (Ymin < 50%)		< 100
Cc1c(-c2ccc(N3CCc4cccc(C(=O)Nc5nc6ccccc6s5)c4C3)nc2C(=O)NCCCCCCCC(=O)Nc2ccc3c(C4CCC(=O)NC4=O)nn(C)c3c2)cnn1CC12CC3CC(CC(C3)C1)C2 (stereo not shown) [Compound 157, 2-(5-(1-(((3r,5r,7r)-adamantan-1-yl)methyl)-5-methyl-1H-pyrazol-4-yl)-6-((8-((3-(2,6-dioxopiperidin-3-yl)-1-methyl-1H-indazol-6-yl)amino)-8-oxooctyl)carbamoyl)pyridin-2-yl)-N-(benzo[d]thiazol-2-yl)-1,2,3,4-tetrahydroisoquinoline-8-carboxamide]	B (50% ≤ Ymin < 70%)		< 100	
Cc1c(O[C@H]2CC[C@H](CCCC(=O)N3CCN(c4ccc5c(C6CCC(=O)NC6=O)nn(C)c5c4)CC3)CC2)cccc1-c1ccc(N2CCc3cccc(C(=O)Nc4nc5ccccc5s4)c3C2)nc1C(=O)O (stereo partly shown) [Compound 227a, 6-(8-(benzo[d]thiazol-2-ylcarbamoyl)-3,4-dihydroisoquinolin-2(1H)-yl)-3-(3-(((1s,4r)-4-(4-(4-(3-(2,6-dioxopiperidin-3-yl)-1-methyl-1H-indazol-6-yl)piperazin-1-yl)-4-oxobutyl)cyclohexyl)oxy)-2-methylphenyl)picolinic acid]		A (Ymin < 50%)		< 100
Cc1c(OCCCN2C[C@@H](C)N(CC(=O)Nc3ccc4c(C5CCC(=O)NC5=O)nn(C)c4c3)[C@@H](C)C2)cccc1-c1ccc(N2CCc3cccc(C(=O)Nc4nc5ccccc5s4)c3C2)nc1C(=O)O (stereo partly drawn) [Compound 116a, 6-[8-(1,3-benzothiazol-2-ylcarbamoyl)-3,4-dihydro-1H-isoquinolin-2-yl]-3-[3-[3-[(3S,5R)-4-[2-[[3-(2,6-dioxo-3-piperidyl)-1-methyl-indazol-6-yl]amino]-2-oxo-ethyl]-3,5-dimethyl-piperazin-1-yl]propoxy]-2-methyl-phenyl]pyridine-2-carboxylic acid]	A (Ymin < 50%)	A (Ymin < 50%)	< 100	< 100
Cc1c(O[C@H]2CC[C@H](CCCN3CCN(c4ccc5c(C6CCC(=O)NC6=O)nn(C)c5c4C)CC3)CC2)cccc1-c1ccc(N2CCc3cccc(C(=O)Nc4nc5ccccc5s4)c3C2)nc1C(=O)O (stereo partly shown) [Compound 334a, 6-(8-(benzo[d]thiazol-2-ylcarbamoyl)-3,4-dihydroisoquinolin-2(1H)-yl)-3-(3-(((1s,4r)-4-(3-(4-(3-(2,6-dioxopiperidin-3-yl)-1,7-dimethyl-1H-indazol-6-yl)piperazin-1-yl)propyl)cyclohexyl)oxy)-2-methylphenyl)picolinic acid]		A (Ymin < 50%)		< 100
Cc1cc(OC[C@H](C)CC2CCN(CC(=O)Nc3ccc4c(C5CCC(=O)NC5=O)nn(C)c4c3)CC2)ccc1-c1ccc(N2CCc3cccc(C(=O)Nc4nc5ccccc5s4)c3C2)nc1C(=O)O (single isomer, unassigned) [Compound 271a]		A (Ymin < 50%)		< 100
Cc1c(OCCCN2CCN(CC(=O)Nc3ccc4c(C5CCC(=O)NC5=O)nn(C)c4c3)C[C@@H]2C(F)(F)F)cccc1-c1ccc(N2CCc3cccc(C(=O)Nc4nc5ccccc5s4)c3C2)nc1C(=O)O (stereo partly drawn) [Compound 245a, 6-(8-(benzo[d]thiazol-2-ylcarbamoyl)-3,4-dihydroisoquinolin-2(1H)-yl)-3-(3-(3-((2R)-4-(2-((3-(2,6-dioxopiperidin-3-yl)-1-methyl-1H-indazol-6-yl)amino)-2-oxoethyl)-2-(trifluoromethyl)piperazin-1-yl)propoxy)-2-methylphenyl)picolinic acid]		B (50% ≤ Ymin < 70%)		< 100
Cc1c(OCCCCC2CCN(CC(=O)Nc3cccc4c(C5CCC(=O)NC5=O)nn(C)c34)CC2)cccc1-c1ccc(N2CCc3cccc(C(=O)Nc4nc5ccccc5s4)c3C2)nc1C(=O)O (stereo not shown) [Compound 213, 6-(8-(benzo[d]thiazol-2-ylcarbamoyl)-3,4-dihydroisoquinolin-2(1H)-yl)-3-(3-(4-(1-(2-((3-(2,6-dioxopiperidin-3-yl)-1-methyl-1H-indazol-7-yl)amino)-2-oxoethyl)piperidin-4-yl)butoxy)-2-methylphenyl)picolinic acid]	C (Ymin ≥ 70%)	A (Ymin < 50%)	1000 to 10000	100 to 1000
Cc1c(O[C@H]2CC[C@H](CCCN3CCN(c4cccc5c(C6CCC(=O)NC6=O)nn(C)c45)C[C@H]3C)CC2)cccc1-c1ccc(N2CCc3cccc(C(=O)Nc4nc5ccccc5s4)c3C2)nc1C(=O)O (stereo partly drawn) [Compound 275a, 6-(8-(benzo[d]thiazol-2-ylcarbamoyl)-3,4-dihydroisoquinolin-2(1H)-yl)-3-(3-(((1S,4r)-4-(3-((2R)-4-(3-(2,6-dioxopiperidin-3-yl)-1-methyl-1H-indazol-7-yl)-2-methylpiperazin-1-yl)propyl)cyclohexyl)oxy)-2-methylphenyl)picolinic acid]		A (Ymin < 50%)		< 100
Cc1cc(O[C@H]2CC[C@H](CCCN3CCN(c4cccc5c(C6CCC(=O)NC6=O)nn(C)c45)CC3)CC2)ccc1-c1ccc(N2CCc3cccc(C(=O)Nc4nc5ccccc5s4)c3C2)nc1C(=O)O (stereo partly shown) [Compound 250a, 6-(8-(benzo[d]thiazol-2-ylcarbamoyl)-3,4-dihydroisoquinolin-2(1H)-yl)-3-(4-(((1s,4r)-4-(3-(4-(3-(2,6-dioxopiperidin-3-yl)-1-methyl-1H-indazol-7-yl)piperazin-1-yl)propyl)cyclohexyl)oxy)-2-methylphenyl)picolinic acid]		A (Ymin < 50%)		< 100
Cc1c(O[C@H]2CC[C@@H](CCC(=O)N3CCN(c4ccc5c(C6CCC(=O)NC6=O)nn(C)c5c4)CC3)CC2)cccc1-c1ccc(N2CCc3cccc(C(=O)Nc4nc5ccccc5s4)c3C2)nc1C(=O)O (stereo partly shown) [Compound 138b, 6-(8-(benzo[d]thiazol-2-ylcarbamoyl)-3,4-dihydroisoquinolin-2(1H)-yl)-3-(3-(((1s,4s)-4-(3-(4-(3-(2,6-dioxopiperidin-3-yl)-1-methyl-1H-indazol-6-yl)piperazin-1-yl)-3-oxopropyl)cyclohexyl)oxy)-2-methylphenyl)picolinic acid]		B (50% ≤ Ymin < 70%)		< 100

From patent US20240238423A9, “TETRAHYDROISOQUINOLINE HETEROBIFUNCTIONAL BCL-XL DEGRADERS” (Treeline Biosciences, Inc., priority 2022, published 2024)
